# Data from US20200223826A1, “Glucose-6-Phosphate Dehydrogenase (G6PD)-Modulating Agents And Methods Of Treating G6PD Deficiency” (The Board of Trustees of the Leland Stanford Junior …, priority 2017, published 2020).
# How the values were obtained:
# [1] = target: aldehyde dehydrogenase 3A1 (ALDH3A1) (Homo sapiens, UniProt P30838); assay: Selectivity: dimerization or activity of other NAD/NADP+-dependent enzymes; assay type: biochemical
# [2] = target: aldehyde dehydrogenase 2 (ALDH2) (Homo sapiens, UniProt P05091); assay: as above; assay type: biochemical
# Sequence of aldehyde dehydrogenase 2 (ALDH2) (P05091 18-517, species assumed): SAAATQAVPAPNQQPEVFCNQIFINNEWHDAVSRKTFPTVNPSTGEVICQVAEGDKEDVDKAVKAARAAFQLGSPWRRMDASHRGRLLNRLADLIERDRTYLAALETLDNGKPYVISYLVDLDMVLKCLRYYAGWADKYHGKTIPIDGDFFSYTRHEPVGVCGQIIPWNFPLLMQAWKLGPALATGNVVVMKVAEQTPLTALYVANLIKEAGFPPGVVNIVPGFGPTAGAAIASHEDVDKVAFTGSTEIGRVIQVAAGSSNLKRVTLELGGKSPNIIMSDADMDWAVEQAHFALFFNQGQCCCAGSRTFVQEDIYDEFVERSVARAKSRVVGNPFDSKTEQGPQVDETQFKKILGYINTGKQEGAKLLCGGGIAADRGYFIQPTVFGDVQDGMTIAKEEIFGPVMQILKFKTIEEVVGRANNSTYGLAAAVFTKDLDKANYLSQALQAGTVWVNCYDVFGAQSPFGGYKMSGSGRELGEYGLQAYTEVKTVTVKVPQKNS
# g6pd crispant embryos = assay: g6pd crispant zebrafish embryos; assay type: in vivo; details: 1 μM AG1
# Method: sgRNA against Exon 10 of g6pd was designed using CHOPCHOP and in vitro transcribed according to standard protocols. The gene-specific oligo sequence was: 5′-[…] CAAG-3′ (SEQ ID NO: //). sgRNA and Cas9 protein (NEB) were mixed and microinjected into one-cell-stage embryos. For each injected clutch, 10 individual embryos were isolated at 24 hpf for sequencing to confirm introduction of a CRISPR-mediated indel in exon 10.
# Embryos were dechorinated with pronase at 24 hours post fertilization (hpf) and treated with 50 μg/ml of chloroquine and/or AG1 by directly adding the compounds to the well. For ROS measurements, embryos were incubated with compounds for 2 hours, and then the ROS detecting reagent (CM-H2DCFDA) was added at a final concentration of 500 ng/ml to the well for a total treatment time of 5 hours. One embryo was placed to each well of a black, opaque 96-well plate. The florescence was analyzed with excitation/emission at 485/525 nm. […] Total protein concentration in the supernatants (total lysate) was determined by Bradford method. […] 50 μg of the lysate was used to measure NADPH levels using a NADPH quantification kit (Biovision), according to the manufacturer's instructions.
# human erythrocytes = assay: Hemolysis of human erythrocytes under oxidative stressors; assay type: cell-based
# Method: De-identified blood samples were obtained from the Stanford Blood Center. Erythrocytes were collected by filtering the samples through a cellulose slurry to remove platelets and leukocytes and then washed with saline. G6PD activity was measured (Beutler E. Red cell metabolism: A manual of biochemical methods (3rd edition). Grune & Stratton (1984)). […] A 5% erythrocyte suspension was pre-incubated with 1-5 μM AG1 at 4° C. overnight, which was followed by treatment with (or without) either 1 mM chloroquine (CQ) or 1 mM diamide for 3-4 hours at 37° C. (for hemolysis assay with chloroquine, the mixture was incubated under light). Then centrifugation at 1,000 rpm for 5 minutes was followed. Hemoglobin release in the supernatant was monitored by measuring absorbance at 540 nm. […] After wash, the samples were lysed with 0.1% Triton X-100 (final concentration), and the florescence was analyzed with excitation/emission at 485/525 nm. GSH measurement was determined using a Cayman glutathione assay kit (Cayman Chemicals, 703002). […] The absorbance was read at 412 nm. For storage assay, a 5% erythrocyte suspension was stored at 4° C. with and without 1 μM AG1, and hemolysis and G6PD activity were monitored every week for 28 days to examine whether AG1 improves preservation of erythrocytes over time. Protein leakage was also examined by measuring the absorbance of the supernatant of samples at 280 nm. […]
# [3] = tested on: fibroblasts with the Mediterranean variant; assay: Viability of fibroblasts, with and without siRNA knockdown; assay type: cell-based, human
# Method: Cell viability was measured using a Cell-Counting Kit-8 (CCK-8, Dojindo), utilizing WST-8 [2-(2-methoxy-4-nitrophenyl)-3-(4-nitrophenyl)-5-(2,4-disulfophenyl)-2H-tetrazolium monosodium salt, according to the manufacturer's instructions. Cells were subjected to serum starvation for 48 hours before measurement. Cells in 100 μL of medium per well were treated with 10 μL of CCK-8 solution and incubated for 2 hours at 37° C. The absorbance was read at 450 nm. Viability of lymphocytes was measured by staining with a 0.4% solution of trypan blue in buffered isotonic salt solution (pH 7.2). The viability was calculated as the number of viable cells (non-stained by the dye) divided by the total number of cells within the grids on the hemacytometer. Cells were treated with 1 μM of the compound 24 hours before the measurement.
# Endogenous G6PD was knocked down in each cell line as follows; 2 pmol of siRNA G6PD (Santa Cruz Biotechnology) and 0.5 μg lipofectamine (Invitrogen) were diluted in 10 μL of Opti-MEM medium respectively and incubated for 5 minutes. The diluted siRNA was combined with diluted lipofectamine, which was followed by additional incubation for 20 minutes prior to the addition to cells in a 96-well plate.
# [4] = tested on: lymphocytes carrying the Canton variant; assay: Glutathione (GSH) measurement in lymphocytes; assay type: cell-based, human; details: treatment with AG1 for 24 hours
# Method: Total glutathione level was measured using a Total Glutathione Quantification Kit (Dojindo), according to the manufacturer's instructions. The assay utilized DTNB (5,5′-dithio-bis-(2-nitrobenzoic acid)) that reacts with glutathione to produce 5-mercapto-2-nitrobenzoic acid, a yellow colored product. Cells were subjected to serum starvation (50-75%) for 48 hours to induce oxidative stress and treated with the compound for 24 hours before measurement. The absorbance was read at 412 nm.
# [5] = tested on: band 3 protein in human erythrocytes; assay: Band 3 protein clustering in erythrocytes; assay type: cell-based; details: chloroquine or diamide treatment
# Sequence of aldehyde dehydrogenase 3A1 (ALDH3A1) (P30838 whole entry, species assumed): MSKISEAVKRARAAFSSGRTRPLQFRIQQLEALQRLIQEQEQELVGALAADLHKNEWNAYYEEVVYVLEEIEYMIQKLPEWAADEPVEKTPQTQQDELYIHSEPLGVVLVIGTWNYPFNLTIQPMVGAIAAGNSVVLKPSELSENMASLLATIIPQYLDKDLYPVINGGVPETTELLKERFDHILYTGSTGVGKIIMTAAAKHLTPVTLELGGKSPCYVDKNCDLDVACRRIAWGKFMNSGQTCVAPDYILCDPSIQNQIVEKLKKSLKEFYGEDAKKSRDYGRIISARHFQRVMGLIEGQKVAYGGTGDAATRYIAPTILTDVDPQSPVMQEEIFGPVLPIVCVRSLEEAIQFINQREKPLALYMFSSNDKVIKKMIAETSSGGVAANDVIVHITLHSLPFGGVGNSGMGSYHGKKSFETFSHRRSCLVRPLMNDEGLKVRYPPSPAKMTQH
structure (smiles),measurement,setting,value
"SCCNCCc1c[nH]c2ccccc12 [AG1, 2-[2-(1H-indol-3-yl)ethylamino]ethanethiol]",effect on dimerization or activity,[1],no effect
same,effect on dimerization or activity,[2],no effect
same,"ROS, G6PD activity, NADPH level, pericardial edema",g6pd crispant embryos,did not significantly affect
same,chloroquine-induced hemolysis,human erythrocytes; AG1 1 μM,rescued
same,extent of hemolysis,"human erythrocytes; AG1 5 μM, 5% erythrocyte suspension, 1 mM chloroquine or diamide",reduces the extent of hemolysis
same,rescue of viability,[3]; Mediterranean G6PD expression knocked down by siRNA,did not rescue
same,improvement of viability,[3]; stress conditions,22%
same,level of GSH,[4],slightly increased
same,band 3 protein aggregation,[5],alleviated
